Test results taken from patent US9890139B2, “CYP17 inhibitors/antiandrogens” (Orion Corporation, priority 2013, dated 2018).
Where two headings read alike, the source gives them in different places.

How the values were obtained:
[1] = target: T1, full-length human AR (Homo sapiens, UniProt P10275); experiment: AR antagonism, reporter gene assay in hAR/HEK293 cells; assay type: cell-based; conditions: HEK293 cells stably transfected with full-length human AR and androgen responsive luciferase reporter; co-treated with submaximal testosterone (usually 0.45 nM); 1% DMSO; triplicates
T1 construct: expression vector encoding full-length human AR; expressed in transfected cells; host or cells: HEK293 (hAR/HEK293 cells)
T1 sequence (P10275 1-920): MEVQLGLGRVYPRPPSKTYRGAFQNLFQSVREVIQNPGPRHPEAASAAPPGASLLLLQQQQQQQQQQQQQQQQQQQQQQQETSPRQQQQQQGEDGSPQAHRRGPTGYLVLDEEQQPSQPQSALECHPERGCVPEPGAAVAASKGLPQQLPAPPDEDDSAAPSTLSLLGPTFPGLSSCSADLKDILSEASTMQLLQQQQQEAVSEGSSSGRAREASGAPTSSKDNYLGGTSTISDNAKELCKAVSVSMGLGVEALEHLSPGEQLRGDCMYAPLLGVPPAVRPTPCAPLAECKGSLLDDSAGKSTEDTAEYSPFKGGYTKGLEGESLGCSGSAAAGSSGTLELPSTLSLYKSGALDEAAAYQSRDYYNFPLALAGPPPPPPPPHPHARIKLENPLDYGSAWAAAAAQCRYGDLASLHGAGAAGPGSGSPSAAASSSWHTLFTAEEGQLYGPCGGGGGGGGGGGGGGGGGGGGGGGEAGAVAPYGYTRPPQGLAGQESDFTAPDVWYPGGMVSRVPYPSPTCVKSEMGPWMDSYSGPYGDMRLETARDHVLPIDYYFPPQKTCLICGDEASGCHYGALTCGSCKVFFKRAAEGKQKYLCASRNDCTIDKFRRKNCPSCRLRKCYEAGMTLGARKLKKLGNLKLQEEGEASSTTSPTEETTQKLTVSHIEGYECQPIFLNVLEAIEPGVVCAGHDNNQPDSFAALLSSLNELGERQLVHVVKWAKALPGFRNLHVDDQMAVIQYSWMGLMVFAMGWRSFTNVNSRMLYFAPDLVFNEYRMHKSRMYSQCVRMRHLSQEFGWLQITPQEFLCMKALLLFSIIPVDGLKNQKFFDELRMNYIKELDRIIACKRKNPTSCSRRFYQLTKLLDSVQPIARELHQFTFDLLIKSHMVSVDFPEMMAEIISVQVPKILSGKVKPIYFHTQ
Description: Antagonism of test compounds for AR was measured by reporter gene assay in human embryonic kidney (HEK293) cells stably transfected with an expression vector encoding full-length human AR and androgen responsive luciferase reporter gene construct (hAR/HEK293 cells). To determine antagonism for hAR, the cells were treated simultaneously with increasing concentrations of the test compound and submaximal concentration of testosterone (usually 0.45 nM). The final DMSO concentration was 1%. All test compounds were studied in triplicates. The cells were incubated for […] before measurement of luciferase activity using Luciferase Assay System (Promega Corporation).

[2] = target: T2, 17,20 lyase (CYP17) (Homo sapiens, UniProt P05093); experiment: 17,20 lyase (CYP17) inhibition, acetic acid release assay (AARA) on H295R cells; assay type: cell-based
T2 construct: endogenous in cells; host or cells: H295R human adrenocortical carcinoma cells
T2 sequence (P05093 1-508): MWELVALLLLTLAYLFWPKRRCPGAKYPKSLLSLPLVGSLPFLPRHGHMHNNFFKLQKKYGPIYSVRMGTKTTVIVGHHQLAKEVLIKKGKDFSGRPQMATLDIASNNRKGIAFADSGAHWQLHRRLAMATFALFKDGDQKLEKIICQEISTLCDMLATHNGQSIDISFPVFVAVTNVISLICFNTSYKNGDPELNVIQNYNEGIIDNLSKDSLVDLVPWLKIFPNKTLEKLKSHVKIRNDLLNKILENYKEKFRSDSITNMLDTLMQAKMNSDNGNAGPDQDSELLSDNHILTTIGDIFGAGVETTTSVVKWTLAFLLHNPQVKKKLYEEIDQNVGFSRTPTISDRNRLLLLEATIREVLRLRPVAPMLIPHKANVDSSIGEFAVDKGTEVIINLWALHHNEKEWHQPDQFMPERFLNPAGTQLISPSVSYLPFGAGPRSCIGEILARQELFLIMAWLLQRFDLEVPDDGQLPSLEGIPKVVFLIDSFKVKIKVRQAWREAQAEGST
Description: The ability of the test compounds to inhibit 17,20 lyase catalysed conversion of 17α-hydroxypregnenolone to dehydroepiandrosterone and acetic acid was measured by acetic acid release assay (AARA) on human H295R adrenocortical carcinoma cell line (Grigoryev, D. N. et al., Analytical Biochemistry 1999; 267:319-330). […] The final DMSO concentration was 1%. Cell culture medium was extracted with dextran-coated charcoal suspension (Isomaa, V. et al., Endocrinology 1982; 111(3):833-843). ^3H-acetic acid was determined by mixing 100 μl of supernatant fraction in 200 μl of scintillation fluid (OptiPhase SuperMix, Perkin Elmer). Radioactivity was measured using a Microbeta scintillation counter (1450 MicroBeta Trilux, Wallac). All the test compounds were studied in quadruplicates.

[3] = human H295R adrenocortical carcinoma cells, overnight (16-19 h) with 17α-[21-3H]hydroxypregnenolone, 3H-acetic acid release, 1% DMSO, quadruplicates, read-out: CYP17 inhibition IC50

SMILES | IC50 [1] | IC50 [2] | IC50 [2, 3]
CCN(c1ccc(C#N)c(C(F)(F)F)c1)C1CC=C(c2cncn2C(C)C)C1 (single isomer, unassigned) [Ex. 51 enantiomer 2, 4-(Ethyl(3-(1-isopropyl-1H-imidazol-5-yl)cyclopent-3-enyl)amino)-2-(trifluoromethyl)benzonitrile] | 17 nM | 166 nM | –
CCN(c1ccc(C#N)c(C(F)(F)F)c1)C1CCC(n2ccnc2)C1 (single isomer, unassigned) [Ex. 86 trans-enantiomer 1, 4-((-3-(1H-imidazol-1-yl)cyclopentyl)(ethyl)amino)-2-(trifluoromethyl)benzonitrile] | 73 nM | 27 nM | –
Cc1nc(N(C)C2C=C(n3ccnc3)CCC2(C)C)ccc1[N+](=O)[O-] (single isomer, unassigned) [Ex. 203 enantiomer 1, N-[3-(1H-Imidazol-1-yl)-6,6-dimethylcyclohex-2-enyl]-N,6-dimethyl-5-nitropyridin-2-amine] | 17 nM | – | 16 nM
CCN(c1ccc(C#N)c(C(F)(F)F)c1)C1CC=C(c2cnco2)C1 (single isomer, unassigned) [Ex. 233 enantiomer 1, 4-(Ethyl(3-(oxazol-5-yl)cyclopent-3-enyl)amino)-2-(trifluoromethyl)benzonitrile] | 59 nM | 66 nM | –
CN(c1ccc(C#N)c(C(F)F)c1)C1C=C(n2ccnc2)CCC1(C)C (single isomer, unassigned) [Ex. 240(b), 4-((3-(1H-imidazol-1-yl)-6,6-dimethylcyclohex-2-enyl)(methyl)amino)-2-(difluoromethyl)benzonitrile (pure enantiomer)] | 52 nM | – | 33 nM
CCN(c1ccc(C#N)c(C(F)(F)F)c1)C1CC(CO)=C(n2ccnc2)C1(C)C (single isomer, unassigned) [Ex. 270 enantiomer 1, 4-(Ethyl(4-(hydroxymethyl)-3-(1H-imidazol-1-yl)-2,2-dimethylcyclopent-3-en-1-yl)amino)-2-(trifluoromethyl)benzonitrile] | 56 nM | 321 nM | –
CCN(c1ccc(C#N)c(Cl)c1)C1CCCC(n2ccnc2)C1 (single isomer, unassigned; diastereomer 4) [Ex. 91 cis-diastereomer, 4-((3-(1H-imidazol-1-yl)cyclohexyl)(ethyl)amino)-2-chlorobenzonitrile] | 64 nM | 36 nM | –
CCN(c1ccc(C#N)c(C(F)(F)F)c1)C1CCCC(n2cncn2)C1 (single isomer, unassigned; diastereomer 4) [Ex. 209 cis-diastereomer, 4-((3-(1H-1,2,4-triazol-1-yl)cyclohexyl)(ethyl)amino)-2-(trifluoromethyl)-benzonitrile] | 56 nM | 154 nM | –
CCN(c1ccc(C#N)c(Cl)c1)C1C=C(n2ccnc2)CCC1(C)C (single isomer, unassigned; enantiomer 1) [Ex. 21, 4-((3-(1H-imidazol-1-yl)-6,6-dimethylcyclohex-2-enyl)(ethyl)amino)-2-chlorobenzonitrile (enantiomer 1)] | 19 nM | 76 nM | –
CN(c1ccc(C#N)c(Cl)c1)[C@@H]1C=C(n2ccnc2)[C@H](O)CC1(C)C (single isomer, unassigned; enantiomer 1) [Ex. 253(b), cis-2-Chloro-4-{[4-hydroxy-3-(1H-imidazol-1-yl)-6,6-dimethylcyclohex-2-enyl](methyl)amino}benzonitrile (enantiomer 1)] | 140 nM | 124 nM | –
CCN(c1ccc(C#N)c(C(F)(F)F)c1)C1CCC=C(c2ccncc2OC)C1 (single isomer, unassigned; isomer 4) [Ex. 84 3,4-isomer, 4-(Ethyl(3-(3-methoxypyridin-4-yl)cyclohex-3-en-1-yl)amino)-2-(trifluoromethyl)benzonitrile] | 50 nM | 96 nM | –
